Data reported in the supplement of paper PMC11061612.

How the values were obtained:
Experiment in all cases: Bliss excess, mean over the matrix (fraction); higher = more synergy
CAL-78 (Chondrosarcoma) = test system: CAL-78 (Chondrosarcoma)
Method in brief: (§1)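 Cell lines grown in DMEM/F12 or RPMI with 10% FBS were plated in 1536-well plates and held 24 hours at 37°C, 5% CO2 before 72 hours of exposure to two-drug dose matrices, with DMSO typically at 0.2%. CellTiter-Glo 2.0 luminescence gave viability, which was converted to inhibition. Vehicle wells were set to 0 and blank wells to 1. Combination Emax is the second-highest inhibition in the matrix, and Bliss excess is the observed combination effect minus the expected EA + EB − EA·EB, where EA and EB are the single-agent effects.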

[1] = test system: COR-L23 (Non-Small Cell Lung Carcinoma)
Method in brief: as §1

[2] = test system: DMS-273 (Small Cell Lung Carcinoma)
Method in brief: as §1

[3] = test system: DOV13 (Ovarian Carcinoma)
Method in brief: as §1

DSH1 (Bladder Carcinoma) = test system: DSH1 (Bladder Carcinoma)
Method in brief: as §1

ES7 (Ewing's Sarcoma) = test system: ES7 (Ewing's Sarcoma)
Method in brief: as §1

[4] = test system: HCC2157 (Breast Carcinoma)
Method in brief: as §1

IGR-1 (Melanoma) = test system: IGR-1 (Melanoma)
Method in brief: as §1

[5] = test system: JiyoyeP-2003 (Burkitt's Lymphoma)
Method in brief: as §1

[6] = test system: LS-513 (Colorectal Carcinoma)
Method in brief: as §1

[7] = test system: MDA-MB-157 (Breast Carcinoma)
Method in brief: as §1

[8] = test system: MDA-MB-231 (Breast Carcinoma)
Method in brief: as §1

[9] = test system: MFH-ino (Other Solid Carcinomas)
Method in brief: as §1

[10] = test system: NCI-H1781 (Lung Adenocarcinoma)
Method in brief: as §1

[11] = test system: NCI-H1793 (Lung Adenocarcinoma)
Method in brief: as §1

NCI-H2369 (Mesothelioma) = test system: NCI-H2369 (Mesothelioma)
Method in brief: as §1

SK-N-FI (Neuroblastoma) = test system: SK-N-FI (Neuroblastoma)
Method in brief: as §1

[12] = test system: SW1088 (Low Grade Glioma)
Method in brief: as §1

[13] = test system: SW780 (Bladder Carcinoma)
Method in brief: as §1

[14] = test system: TE-5 (Esophageal Squamous Cell Carcinoma)
Method in brief: as §1

Structure (SMILES)	Bliss excess (CAL-78 (Chondrosarcoma))	Bliss excess [1]	Bliss excess [2]	Bliss excess [3]	Bliss excess (DSH1 (Bladder Carcinoma))	Bliss excess (ES7 (Ewing's Sarcoma))	Bliss excess [4]	Bliss excess (IGR-1 (Melanoma))	Bliss excess [5]	Bliss excess [6]	Bliss excess [7]	Bliss excess [8]	Bliss excess [9]	Bliss excess [10]	Bliss excess [11]	Bliss excess (NCI-H2369 (Mesothelioma))	Bliss excess (SK-N-FI (Neuroblastoma))	Bliss excess [12]	Bliss excess [13]	Bliss excess [14]
CN(CCO)CC[C@H](CSc1ccccc1)Nc1ccc(S(=O)(=O)NC(=O)c2ccc(N3CCC([C@@H](O)c4ccccc4-c4ccc(Cl)cc4)CC3)cc2)cc1S(=O)(=O)C(F)(F)F [AZD4320] + C=CCn1c(=O)c2cnc(Nc3ccc(N4CCN(C)CC4)cc3)nc2n1-c1cccc(C(C)(C)O)n1 [AZD1775] (first compound max 1 µM, partner max 1 µM)	0.073	-0.006	-0.0229	0.0352	0.0646	0.136	-0.0386	0.146	0.0154	-0.0134	0.0043	0.0551	-0.0288	-0.003	-0.0061	-0.0413	-0.0331	0.0064	0.0079	0.0773
COc1nnc2ccc(N3CCC(c4ccc(OCCN5CCN(C)C(=O)[C@H]5C)cc4)CC3)nn12 [AZD5153] + Cc1c2c(nn1C)CSCc1cc(n(C)n1)CSc1cc(c3ccccc3c1)OCCCc1c(C(=O)O)n(C)c3c-2c(Cl)ccc13 [AZD5991] (first compound max 1 µM, 7x7, partner max 1 µM)	-0.0263	-0.0296	-0.1	-0.108	0.0112	0.0052	0.0049	0.0094	-0.0218	-0.0549	0.0297	-0.057	-0.0333	0.0028	-0.0484	-0.0499	-0.0656	0.0112	-0.0187	-0.0158
COc1cc2c(cc1OCCCCCOc1cc3c(cc1OC)C(=O)N1C=C(C)C[C@H]1C=N3)N=C[C@@H]1CC(C)=CN1C2=O [SG3199] + O=C(c1cc(Cc2n[nH]c(=O)c3ccccc23)ccc1F)N1CCN(C(=O)C2CC2)CC1 [Olaparib] (first compound max 0.001 µM, 7x7, partner max 10 µM)	-0.0831	0.0285	0.002	-0.0443	-0.0442	0.0011	0.0277	-0.0189	-0.0016	-0.0372	-0.0185	-0.0808	-0.0739	-0.0305	-0.0323	-0.035	-0.0296	-0.0511	-0.0497	-0.0665
COc1cccc(OCCCN)c1-c1cc(Nc2cnc(C#N)cn2)n[nH]1 [Prexasertib] + C=CCn1c(=O)c2cnc(Nc3ccc(N4CCN(C)CC4)cc3)nc2n1-c1cccc(C(C)(C)O)n1 [AZD1775] (first compound max 1 µM, partner max 1 µM)	-0.0422	0.047	0.0795	0.0963	0.112	0.0597	0.0668	0.0284	0.0839	0.0763	0.0628	0.124	0.039	0.0258	-0.0045	-0.0074	0.0466	-0.0156	0.0349	-0.0245
NC1(C(=O)N[C@@H](CCO)c2ccc(Cl)cc2)CCN(c2ncnc3[nH]ccc23)CC1 [Capivasertib] + COc1nnc2ccc(N3CCC(c4ccc(OCCN5CCN(C)C(=O)[C@H]5C)cc4)CC3)nn12 [AZD5153] (first compound max 10 µM, 7x7, partner max 1 µM)	0.0536	0.0335	0.0231	-0.0489	-0.0394	0.104	-0.008	-0.0325	-0.0714	-0.0246	0.0204	-0.009	0.0006	0.0513	0.0278	0.004	-0.0019	0.0253	0.0042	0.0361
C=CCn1c(=O)c2cnc(Nc3ccc(N4CCN(C)CC4)cc3)nc2n1-c1cccc(C(C)(C)O)n1 [AZD1775] + C[C@@H]1COCCN1C2=NC(=NC(=C2)C3(CC3)[S@](=N)(=O)C)C4=C5C=CNC5=NC=C4 [AZD6738] (first compound max 1 µM, partner max 10 µM)	0.0171	0.0462	0.0645	0.0366	0.0201	0.0753	0.0218	0.0632	0.046	-0.0242	0.0217	0.0726	-0.0909	-0.0334	-0.0289	-0.0395	-0.0346	-0.0902	-0.0092	-0.0843
CC1(C)CCC(CN2CCN(c3ccc(C(=O)NS(=O)(=O)c4ccc(NCC5CCOCC5)c([N+](=O)[O-])c4)c(Oc4cnc5[nH]ccc5c4)c3)CC2)=C(c2ccc(Cl)cc2)C1 [Venetoclax] + C[C@@H]1COCCN1C2=NC(=NC(=C2)C3(CC3)[S@](=N)(=O)C)C4=C5C=CNC5=NC=C4 [AZD6738] (first compound max 1 µM, 7x7, partner max 10 µM)	0.0138	-0.0392	-0.0779	-0.001	-0.0662	0.0245	0.0204	0.0165	0.0139	-0.0591	-0.0195	-0.0312	-0.0926	0.0284	0.0073	-0.0247	0.0009	-0.0327	-0.0299	-0.0623
